This note sets out measurements from patent US11236129B2, “IL-17A binding peptides and medical uses thereof” (Dompe' Farmaceutici S.P.A., priority 2018, dated 2022).

pIC50, pKd: −log10 of the molar value. “Also recorded” adds a separate entry of the source. Residues, ends and D or L forms follow the SMILES beside them.

By logP is commonly meant the decadic logarithm of the partition coefficient of the neutral form, usually between octanol and water. As usually defined, the solubility is the concentration that dissolves in the medium under given conditions. Read a high solubility as much dissolved substance. A word on the Papp: it is a coefficient for how fast a substance crosses the barrier.

In data set [1] the target is IL-17RA/IL17RC dimerization induced by IL-17A (Homo sapiens, UniProt Q16552). As to the kind of experiment: IL-17RA/IL17RC dimerization assay in response to IL-17A (PathHunter Cytokine Receptor Assay). Format: cell-based. The note with it: IL-17A at EC80; read-out: IC50 in IL-17RA/IL7RC dimerization assay. In outline: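 PathHunter cells with IL-17RA and IL-17RC tagged for β-galactosidase complementation were preincubated 60 min with peptide (1% vehicle). IL-17A was then added at EC80 for 6–16 h at 37 °C, and chemiluminescence was read. Inhibition is relative to the EC80 and vehicle controls.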
Sequence of IL-17RA/IL17RC dimerization induced by IL-17A (Q16552 24-155): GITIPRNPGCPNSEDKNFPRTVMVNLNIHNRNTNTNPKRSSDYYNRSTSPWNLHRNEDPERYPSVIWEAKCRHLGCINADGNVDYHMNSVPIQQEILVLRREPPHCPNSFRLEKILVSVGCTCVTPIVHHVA

Data set [2] in a line: Isoelectric point, log D and log P (SiriusT3). Type of data set: physicochemical. The following applies: for IP (isoelectric point): 25±1° C., 0.15 M KCl; for logP: octanol/ISA water, read-out: logP; for logD: pH 7.4, pH 7.4, octanol/ISA water, read-out: Log D (7.4).
Data set [3] is classed as physicochemical. The following applies: pH 7.8. In outline: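 Peptides dissolved in phosphate buffer pH 7.8 as 10 mM stocks (more dilute for less soluble ones) and stored at 25 °C. Content measured by reversed-phase UHPLC (C18, 0.5% formic acid water/acetonitrile gradient, DAD 220-400 nm, ESI-MS ion trap) after 1:100 dilution to 100 μM, against 100 μM standards, at T0, 3 days and 1 week.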

Data set [4] in a line: Permeability test across stratified human corneal epithelial cells. Type of data set: in vitro ADME. As for the experimental part: (§1) The objective of this study was to evaluate the apparent permeability coefficient (Papp) value of the peptides across stratified human corneal epithelial cells. All peptides were tested at 50 μM in duplicate.
(§2) In particular, human corneal epithelial cells (hCEPIC) were stratified on Transwell cell culture inserts (Corning, N.Y., USA). The permeation experiments were performed taking samples from receiver chambers at 5, 30, 60 minutes time points and from donor chambers at the same time points. Each aliquot collected was analyzed by HPLC instrument (Knauer) equipped with C18 Vertex Plus Column (Knauer) thermostatically controlled at 40° C. The rate (apparent permeability coefficient, Papp) of the study compounds was calculated and compared to the Papp values of the low and high permeability markers, 6-carboxyfluorescein and Rhodamine B, respectively.
(§3) The apparent permeability coefficient (Papp) was calculated according to Equation: Papp=(I/A*C0)(dM/dt)
(§4) where dM/dt is the flux (nanomoles per second) across the cell layers;
(§5) A (square centimeters) is the exposed surface area of the insert membrane;
(§6) C0 is the initial drug concentration (micromolar) in the donor compartment at t=0 (Xiang et al., Drug Metab Dispos. 2009 May; 37(5):992-8.

Data set [5] concerns human corneal epithelial cells (hCEPIC). Described as above. Type of data set: in vitro ADME. As for the experimental part:
as §1, §2, §3, §4, §5, §6

The target in data set [6] is T1, mouse IL-17A (Mus musculus, UniProt Q62386).
T1 sequence (Q62386 26-158): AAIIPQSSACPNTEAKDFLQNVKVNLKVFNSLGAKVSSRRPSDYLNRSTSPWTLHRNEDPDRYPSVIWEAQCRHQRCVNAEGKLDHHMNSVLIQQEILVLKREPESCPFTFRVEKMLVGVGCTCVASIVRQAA
Kind of data set: Peptide-IL-17A affinity test (SPR). Type of data set: binding. As for the experimental part:
The peptide of the prior art HAP (SEQ ID NO:1) and peptide of SEQ ID NO:2 were tested for affinity for mIL-17A, as described below. For the immobilization of mouse IL-17A protein, amine coupling chemistry was used. […] Covalent immobilization of mIL17 results in stable attachment of 3000 RU of ligand to the surface. […] The molecules were diluted at different concentrations (from 62.5 to 1000 nM) in HBS-EP buffer and injected on the sensorchip for 4 minutes and allowed to dissociate for 5 minutes. After each run, the sensorchip was regenerated by 2 M NaCl injection. Based on the sensorgrams (FIG. 1, panel A) and using the BIAevaluation software, the Scatchard analysis of the RU values at equilibrium allowed to determine an affinity constant as a function of the analyte concentration in solution (FIG. 6, panel B).

Data set [7] has as its system Immortalized Human Corneal Epithelial cell line (I-HCEC). Kind of data set: In vitro evaluation of expression of inflammatory cytokines in I-HCEC (real-time PCR). Format: cell-based. The note with it: 0.01-500 μM, 24 hours. For orientation: Quantitative PCR measures a nucleic acid by following its amplification.
Experimental: The tests were conducted on Immortalized Human Corneal Epithelial cell line (I-HCEC) (Innoprot, Bizkaia, Spain, Ref. P10871). […] The cell medium was supplemented with 5% Fetal Bovine Serum (FBS). Cells were seeded at 320000 cells/well 6 plate and 15000 cells/well 96 plate. […] The experiments were performed three times, each time in duplicate. The used probes from Thermo Fisher Scientific are: human CXCL8 (Hs00174103_m1), human IL6 (Hs00174131_m1), human TNFα (Hs99999043_m1). As housekeeping gene was used GAPDH (probe Hs02758991_g1). […] Untreated I-HCEC were used as negative control (Vehicle).
In data set [8] the test system is human differentiated TH17 cells. Kind of data set: Cytokine and metalloproteinase secretion by human differentiated and activated TH17 cells. Format: cell-based. The following applies: 24 h after stimulation, supernatant. The source says:
To evaluate the effect of the peptides of the invention on the target cells responsible for inflammation in ophtalmic or dermatological pathologies, we tested the ability of the peptide of SEQ ID NO: 18 to inhibit in vitro pro-inflammatory cytokines and metalloproteinases secretion by human Th17 cells.
Human primary CD4 T-cells were differentiated into Th17 cells in vitro by culturing the cells in Th17 differentiation medium for 10 days. In details, purified human peripheral blood CD4 T-cells were cultured in Th-17 differentiation medium (CellXVivo Human Th17, Tocris) per manufacturer's instructions. Briefly: 96-well tissue culture plates were coated with anti-CD3 and CD28 agonistic antibodies. Cells were counted via trypan blue exclusion and suspended at a concentration of 1E5 cells/ml in Th-17 differentiation medium. 0.2 mL of this suspension was plated into individual wells of a 96-well plate. Cells were incubated at 37° C. with 5% CO2 for 10 days, with media replaced as needed. Following 10-day Cell Differentiation, the peptides synthetized in Example 1, such as the peptide of Seq. ID No 18, were diluted to the appropriate concentration in CGM (cell growth medium, XVivo-15, Lonza). Cell plate was centrifuged at 300×g for 5 min, and Th17 differentiation medium was removed.
Following differentiation, the cells were stimulated with both an activation cocktail containing Phorbol 12-myristate 13-acetate and lonomycin in the presence of varying concentrations of test articles.
(§7) At 24 h following stimulation, culture supernatants were analyzed for expression of IL-17, IL-6, IL-23, MMP3 and examined for viability using the fluorescence viability dye, Alamar blue. The CD4 cells secreted high levels of IL-17A in response to stimulation with an activation cocktail, indicating successful differentiation into Th17 cells. Additionally, stimulated cells secreted IL-6, IL23 and MMP3.
Supernatant was removed and replaced with 200 μL of diluted peptide or vehicle (CGM+DMSO diluted as with TI concentration) in appropriate groups. Cells were incubated with peptide test items for 1 hour before stimulation. The following stimulation solutions were generated: 10× Cell Activation Cocktail: Diluted from 500× to 10× working solution in CGM. 22 μL of appropriate stimulants were added to wells 1 hr after TI addition. Finally, 25 μL of Alamar blue reagent (10×) was added to each well 20 hours after stimulant (4 hrs prior to 24 hr serum collection) to determine cell viability. 24 hrs After Stimulant, Alamar blue fluorescence was measured per manufacturer's instructions. […] Expression levels of IL-6, IL-17, and IL-23 as well as MMP3 in 24 hour stimulated culture supernatants was evaluated using a Luminex Multiplex Platform on a MAGPIX instrument.

Data set [9] has as its system human TH17 cells. As to the kind of experiment: Viability of human TH17 cells (Alamar blue). Format: cell-based. As for the experimental part:
as §7
Supernatant was removed and replaced with 200 μL of diluted peptide or vehicle (CGM+DMSO diluted as with TI concentration) in appropriate groups. Cells were incubated with peptide test items for 1 hour before stimulation. The following stimulation solutions were generated: 10× Cell Activation Cocktail: Diluted from 500× to 10× working solution in CGM. 22 μL of appropriate stimulants were added to wells 1 hr after TI addition. Finally, 25 μL of Alamar blue reagent (10×) was added to each well 20 hours after stimulant (4 hrs prior to 24 hr serum collection) to determine cell viability. 24 hrs After Stimulant, Alamar blue fluorescence was measured per manufacturer's instructions. Remaining Supernatants were collected for subsequent multiplex protein analyses. Expression levels of IL-6, IL-17, and IL-23 as well as MMP3 in 24 hour stimulated culture supernatants was evaluated using a Luminex Multiplex Platform on a MAGPIX instrument.
For orientation: Resazurin is reduced to fluorescent resorufin, in cell work by metabolically active cells.

Consider `CC[C@H](C)[C@H](NC(=O)[C@H](Cc1c[nH]c2ccccc12)NC(=O)[C@H](CC(=O)O)NC(=O)[C@H](Cc1c[nH]c2ccccc12)NC(=O)[C@H](CC(C)C)NC(=O)[C@H](CC(=O)O)NC(=O)[C@H](C)NC(=O)[C@@H]1CCCN1C(=O)[C@@H](NC(=O)[C@@H](NC(=O)[C@@H](NC(=O)[C@H](Cc1c[nH]cn1)NC(=O)[C@@H](NC(C)=O)C(C)C)C(C)C)[C@@H](C)O)[C@@H](C)CC)C(=O)N[C@@H](CC(N)=O)C(=O)N[C@@H](CCCCN)C(N)=O` [SEQ ID NO: 2] (Ac-VHVTIPADLWDWINK-NH2), for which the pIC50 in data set [1] was greater than 6.70. Besides, in data set [2], the “IP (isoelectric point)” value is listed as 5.14, the logP was found to be 0.99 and the logD is -0.56. In data set [3], the solubility is greater than 10 mM. Moreover, the Papp in [4] (Permeability (Papp ± SE)) is 28.8 ×10⁻⁶ cm/s. The compound also came in with a Papp in [4] (Permeability (Papp)) of 28.9 ×10⁻⁶ cm/s. Besides, in data set [5], the “Permeability (Papp ± SE)” value worked out at 28.86 and the “permeability compared to high permeability standard Rhodamine B (in words)” value was “good permeability”. For the same compound, the “affinity for mouse IL-17A relative to SEQ ID NO: 1” value in data set [6] (SPR) is 28 fold. For the same compound, the pKd in data set [6] (immobilized mIL-17A, 62.5 to 1000 nM peptide, read-out: Kdeq (SPR)) is 6.89. The “expression of the measured inflammatory cytokines (IL-8, IL-6, TNF-α)” value in [7] was “does not change the expression; also recorded: does not show any effect”.
For the compound `CC[C@H](C)[C@H](NC(=O)[C@H](Cc1c[nH]c2ccccc12)NC(=O)[C@H](CCC(=O)O)NC(=O)[C@H](Cc1ccc(O)cc1)NC(=O)[C@H](CC(C)C)NC(=O)[C@H](CC(=O)O)NC(=O)[C@H](C)NC(=O)[C@@H]1CCCN1C(=O)[C@@H](NC(=O)[C@@H](NC(=O)[C@@H](NC(=O)[C@H](CCSC)NC(=O)[C@@H](NC(C)=O)C(C)C)C(C)C)[C@@H](C)O)[C@@H](C)CC)C(=O)N[C@@H](CCC(=O)O)C(=O)N[C@@H](CCC(=O)O)C(N)=O` [SEQ ID NO: 18] (Ac-VMVTIPADLYEWIEE-NH2), the pIC50 in [1] was greater than 6.40. Moreover, in data set [8], the “secretion of IL-6” value was “significantly reduce”, the “secretion of IL-17A” value is “significantly reduce”, the “secretion of IL-23” value is listed as “significantly reduce” and the “secretion of MMP3” value was “significantly reduce”. The cell viability result in [9] is “did not impair cell viability”. In data set [2], the “IP (isoelectric point)” value was 3.55, the logP stood at 1.89 and the logD is -3.79. The same compound had a solubility in [3] of no less than 0.05 mM.
